Measurements reported in ChEMBL document CHEMBL4177640, “Potential anti-proliferative agents from 1,4-benzoxazinone-quinazolin-4(3H)-one templates” (2017).

Columns and labels:
Type in all cases: functional
A549 = assay: Antiproliferative activity against human A549 cells after 48 hrs by SRB cell proliferation assay; settings: A549, 48 h
HeLa = assay: Antiproliferative activity against human HeLa cells after 48 hrs by SRB cell proliferation assay
MDA-MB-231 = assay: Antiproliferative activity against human MDA-MB-231 cells after 48 hrs by SRB cell proliferation assay; settings: MDA-MB-231, 48 h

GI50 (A549) [µM] | GI50 (HeLa) [µM] | GI50 (MDA-MB-231) [µM] | Structure (SMILES)
1 | 1.05 | 1.13 | CCOc1ccc(-c2nc3ccccc3c(=O)n2C/C=C/c2ccc(C(=O)CN3C(=O)COc4ccccc43)cc2)cc1
0.81 | 1.02 | 1.52 | O=C(CN1C(=O)COc2ccccc21)c1ccc(/C=C/Cn2c(-c3ccc(F)cc3)nc3ccccc3c2=O)cc1
1 | 0.66 | 8.8 | O=C(CN1C(=O)COc2ccccc21)c1ccc(/C=C/Cn2c(-c3ccc([N+](=O)[O-])cc3)nc3ccccc3c2=O)cc1
1.5 | 1.03 | 3.6 | COc1ccc(-c2nc3ccccc3c(=O)n2C/C=C/c2ccc(C(=O)CN3C(=O)COc4ccccc43)cc2)cc1
0.93 | 1.32 | 0.58 | O=C(CN1C(=O)COc2ccccc21)c1ccc(/C=C/Cn2c(-c3ccc(C(F)(F)F)cc3)nc3ccccc3c2=O)cc1
0.76 | 1.1 | 2 | O=C(CN1C(=O)COc2ccccc21)c1ccc(/C=C/Cn2c(-c3ccc(Cl)cc3)nc3ccccc3c2=O)cc1
1.36 | 0.59 | 6.03 | COc1ccc(-c2nc3ccccc3c(=O)n2C/C=C/c2ccc(C(=O)CN3C(=O)COc4ccccc43)cc2)c(OC)c1
0.67 | 0.37 | 2.4 | COc1ccc(-c2nc3ccccc3c(=O)n2C/C=C/c2ccc(C(=O)CN3C(=O)COc4ccccc43)cc2)c(F)c1
0.61 | 0.55 | 13 | COc1cccc(-c2nc3ccccc3c(=O)n2C/C=C/c2ccc(C(=O)CN3C(=O)COc4ccccc43)cc2)c1
0.9 | 1.4 | 3.4 | Cc1ccc(-c2nc3ccccc3c(=O)n2C/C=C/c2ccc(C(=O)CN3C(=O)COc4ccccc43)cc2)cc1
0.91 | 0.62 | 2.73 | O=C(CN1C(=O)COc2ccccc21)c1ccc(/C=C/Cn2c(-c3ccc(Cl)cc3Cl)nc3ccccc3c2=O)cc1
0.32 | 1.51 | 6.76 | COc1ccc(-c2nc3ccccc3c(=O)n2C/C=C/c2ccc(C(=O)CN3C(=O)COc4ccccc43)cc2)c(OC)c1OC
0.91 | 0.88 | 6.14 | Cc1nc2ccccc2c(=O)n1C/C=C/c1ccc(C(=O)CN2C(=O)COc3ccccc32)cc1
1 | 1.37 | 13.4 | O=C(CN1C(=O)COc2ccccc21)c1ccc(/C=C/Cn2c(-c3ccccc3)nc3ccccc3c2=O)cc1
0.056 | 0.084 | 0.046 | COc1ccc(/C=C\c2cc(OC)c(OC)c(OC)c2)cc1O [COMBRETASTATIN A4]
< 0.01 | < 0.01 | < 0.01 | COC(=O)Nc1nc2cc(C(=O)c3cccs3)ccc2[nH]1 [NOCODAZOLE]
